Test results: ChEMBL document CHEMBL3885861, “Open TG-GATES”

Species: Rattus norvegicus
Experiment: Open TG-GATES - Regimen: Daily Repeat
Format: toxicity, organism-based, Sprague-Dawley
Set-up: regimen Daily Repeat, gender Male, age 6 weeks
Details: in vivo, po, 0 mg/kg, route gavage, dose level Control; for APTT / Bas / Eos / Fbg / Hb / Ht / Lym / MCH / MCHC / MCV / Mono / Neu / PT / Plat / RBC / Ret / WBC: tissue Blood
[1] = 72 h, tissue Kidney, time 3 day
[2] = 72 h, tissue Plasma, time 3 day

NC(N)=Nc1nc(CSCCC(N)=NS(N)(=O)=O)cs1 [FAMOTIDINE]
TERMINAL_BW (72 h, time 3 day): 227 g
APTT (72 h, time 3 day): 19.5 s
Bas (72 h, time 3 day): 0%
Eos (72 h, time 3 day): 1%
Fbg (72 h, time 3 day): 221.4 mg/dL
Hb (72 h, time 3 day): 13.5 g/dL
Ht (72 h, time 3 day): 37.4%
Lym (72 h, time 3 day): 73.8%
MCH (72 h, time 3 day): 22.4 pg
MCHC (72 h, time 3 day): 36.1%
MCV (72 h, time 3 day): 61.9 fL
Mono (72 h, time 3 day): 3.2%
Neu (72 h, time 3 day): 20.6%
PT (72 h, time 3 day): 11.8 s
Plat (72 h, time 3 day): 125.1 x10_4/uL
RBC (72 h, time 3 day): 604.6 x10_4/ul
Ret (72 h, time 3 day): 5.7%
WBC (72 h, time 3 day): 75.1 x10_2/uL
KIDNEY_L [1]: 1 g
KIDNEY_R [1]: 1 g
KIDNEY_TOTAL [1]: 2 g
LIVER (72 h, tissue Liver, time 3 day): 10.4 g
A/G [2]: 1.5
ALP [2]: 999.6 IU/L
ALT [2]: 31.4 IU/L
AST [2]: 64.2 IU/L
BUN [2]: 13.8 mg/dL
CRE [2]: 0.4 mg/dL
Ca [2]: 10.7 mg/dL
Cl [2]: 103.2 meq/L
DBIL [2]: 0.086 mg/dL
GLC [2]: 190.6 mg/dL
IP [2]: 7.2 mg/dL
LDH [2]: 194 IU/L
Na [2]: 139.8 meq/L
PL [2]: 139.6 mg/dL
RALB [2]: 3.4 g/dL
TBIL [2]: 0.1 mg/dL
TC [2]: 76.6 mg/dL
TG [2]: 78.4 mg/dL
TP [2]: 5.5 g/dL
gamma-GTP [2]: 1 IU/L
TERMINAL_BW ([…], time 7 day): 257.4 g
TERMINAL_BW ([…], time 14 day): 314.4 g
TERMINAL_BW ([…], time 28 day): 376 g
APTT ([…], time 7 day): 20.1 s
Bas ([…], time 7 day): 0%
Eos ([…], time 7 day): 0.8%
Fbg ([…], time 7 day): 230 mg/dL
Hb ([…], time 7 day): 13.7 g/dL
Ht ([…], time 7 day): 38.3%
Lym ([…], time 7 day): 80.4%
MCH ([…], time 7 day): 22.2 pg
MCHC ([…], time 7 day): 35.8%
MCV ([…], time 7 day): 62 fL
Mono ([…], time 7 day): 2.4%
Neu ([…], time 7 day): 14.8%
PT ([…], time 7 day): 11.8 s
Plat ([…], time 7 day): 126.2 x10_4/uL
RBC ([…], time 7 day): 618.2 x10_4/ul
Ret ([…], time 7 day): 5%
WBC ([…], time 7 day): 82.2 x10_2/uL
APTT ([…], time 14 day): 22.3 s
Bas ([…], time 14 day): 0%
Eos ([…], time 14 day): 1%
Fbg ([…], time 14 day): 229.4 mg/dL
Hb ([…], time 14 day): 14.3 g/dL
Ht ([…], time 14 day): 41.9%
Lym ([…], time 14 day): 81.8%
MCH ([…], time 14 day): 20.8 pg
MCHC ([…], time 14 day): 34.1%
MCV ([…], time 14 day): 60.9 fL
Mono ([…], time 14 day): 1.6%
Neu ([…], time 14 day): 14.2%
PT ([…], time 14 day): 12.3 s
Plat ([…], time 14 day): 118.4 x10_4/uL
RBC ([…], time 14 day): 689 x10_4/ul
Ret ([…], time 14 day): 4.5%
WBC ([…], time 14 day): 112.3 x10_2/uL
APTT ([…], time 28 day): 21.3 s
Bas ([…], time 28 day): 0%
Eos ([…], time 28 day): 1%
Fbg ([…], time 28 day): 233.6 mg/dL
Hb ([…], time 28 day): 15.4 g/dL
